The values below come from patent US9145424B2, “Treatment of amyotrophic lateral sclerosis” (Northwestern University, priority 2008, dated 2015).

Read-outs that look alike come from different tables or passages of the source.

In the series the test system is PC12 cells that express mutant G93A SOD1. Description: Mutant SOD1-induced cytotoxicity protection assay. Conditions: for Corresponding % viability: rat, 48 h. On the procedure: This idea was tested by examining the sensitivity of PC12 cells to SOD1 aggregates in the presence and absence of proteasome inhibitor MG132. PC12 cells expressing no SOD1, wild type SOD1, G85R SOD1 or G93A SOD1 were grown with or without MG132 (FIG. 1).
PC12 cells expressing G93A SOD1 were treated with 100 nM MG132 with or without co-treatment with geldanamycin or radicicol.

Setting [1] is: Rattus norvegicus, PC-12, read-out: Best EC50, PC12 G93A SOD1 cells, MG132, calcein-AM viability.
Setting [2] is: Rattus norvegicus, PC-12, read-out: EC50 after Normalization, normalised with the corresponding 3299 EC50.
Where [3] appears, read: read-out: Best EC50, PC12 G93A SOD1 cells, MG132, calcein-AM viability.
Setting [4] is: read-out: EC50 after Normalization, normalised with the corresponding 3299 EC50.

In general, EC50 refers to the concentration that produces a half-maximal response. Turning to `O=c1cc(CSc2ccccc2)[nH][nH]1` [CMB-053526-1], the Corresponding % viability was determined as 77%. The EC50 under setting [1] was 6850 nM.
In the case of `CC(C)(C)c1ccc(SCc2cc(=O)[nH][nH]2)cc1` [CMB-053527-1], the Corresponding % viability was 150%. In addition, the EC50 under setting [1] was 5380 nM. For the same compound, the half-maximal effective concentration (EC50) under setting [2] was found to be 2310 nM.
In the same order, the values of `O=c1cc(CSc2ccc([N+](=O)[O-])cc2)[nH][nH]1` [CMB-053528-1] are 136%, 5590 nM and 2400 nM.
As for `O=c1cc(CSc2ccc(Cl)cc2)[nH][nH]1` [CMB-053529-1], the Corresponding % viability is 93%. In addition, under setting [2], the EC50 worked out at 1930 nM. Moreover, under setting [3], the EC50 was 4490 nM.
For `O=C1NN=C(CSc2ccccc2)C1=Cc1ccccc1` [CMB-053530-1], under setting [1], the EC50 is more than 32000 nM.
As for `O=c1cc(CSc2ccc(Br)cc2)[nH][nH]1` [CMB-053543-1], the Corresponding % viability came to 94%. The EC50 under setting [1] was 4240 nM. Also, under setting [2], the EC50 amounted to 1800 nM.
As for `O=c1cc(CSc2ccc(Cl)c(Cl)c2)[nH][nH]1` [CMB-053544-1], the Corresponding % viability stood at 113%. In addition, under setting [1], the EC50 is 2600 nM. Also, the EC50 under setting [2] was 1890 nM.
For `O=c1cc(CSc2ccc(Cl)cc2Cl)[nH][nH]1` [CMB-053545-1] the same measures were 124%, 1580 nM and 1150 nM.
As for `O=c1cc(CSc2ccc(Cl)cc2)[nH]n1-c1ccccc1` [CMB-086473-1], the Corresponding % viability was 109%. Moreover, under setting [1], the EC50 was 5110 nM. The EC50 under setting [2] is 3460 nM.
Take `O=c1cc(C[S+]([O-])c2ccc(Cl)cc2)[nH]n1-c1ccccc1` (stereo not shown) [CMB-086474-1]: the EC50 under setting [1] was more than 32000 nM.
As to `O=c1cc(CS(=O)(=O)c2ccc(Cl)cc2)[nH][nH]1` [CMB-086475-1], the Corresponding % viability is reported as 110%. The EC50 under setting [1] was 6920 nM. The EC50 under setting [2] is 4700 nM.
As for `CN(C)c1ccc(SCc2cc(=O)[nH][nH]2)cc1` [CMB-086476-1], the Corresponding % viability is 77%. The EC50 under setting [1] is 1650 nM.
As to `COc1ccc(SCc2cc(=O)[nH][nH]2)cc1` [CMB-086477-1], the Corresponding % viability is recorded as 102%. Moreover, the EC50 under setting [1] was 4210 nM. Besides, under setting [2], the EC50 was determined as 1810 nM.
In the same order, the values of `O=c1cc(CSc2ccc(F)cc2)[nH][nH]1` [CMB-086478-1] are 104%, 4730 nM and 3440 nM.
As for `Cc1ccc(C)c(SCc2cc(=O)[nH][nH]2)c1` [CMB-086479-1], the Corresponding % viability stood at 77%. Besides, the EC50 under setting [1] was 220 nM.
As for `O=c1cc(CSc2c(Cl)cccc2Cl)[nH][nH]1` [CMB-086480-1], the Corresponding % viability is reported as 142%. Moreover, under setting [1], the EC50 was 260 nM. Further, under setting [2], the EC50 is 950 nM.
Take `Cc1cc(SCc2cc(=O)[nH][nH]2)c(C)cc1Cl` [CMB-086481-1]: the Corresponding % viability worked out at 140%. For the same compound, under setting [2], the EC50 stood at 390 nM. In addition, under setting [3], the EC50 is 430 nM.
As to `Cc1cc([S+]([O-])Cc2cc(=O)[nH][nH]2)c(C)cc1Cl` (stereo not shown) [CMB-086482-1], the Corresponding % viability is 123%. In addition, the EC50 under setting [1] was 4470 nM. Further, under setting [2], the EC50 was found to be 2880 nM.
As for `O=c1cc(CSc2ccc(F)cc2Cl)[nH][nH]1` [CMB-086832-1], the Corresponding % viability was 68%. Also, the EC50 under setting [1] was 1610 nM.
Turning to `O=c1cc(CSc2cccc(Cl)c2)[nH][nH]1` [CMB-086833-1], the Corresponding % viability is given as 148%. Under setting [1], the EC50 is 250 nM. Moreover, the EC50 under setting [2] was determined as 1110 nM.
Turning to `O=c1cc(CSc2ccccc2Cl)[nH][nH]1` [CMB-086834-1], the Corresponding % viability is on record as 123%. In addition, under setting [1], the EC50 was 840 nM. In addition, the EC50 under setting [2] amounted to 3050 nM.
Turning to `O=c1cc(CSc2cc(Cl)cc(Cl)c2)[nH][nH]1` [CMB-086835-1], the Corresponding % viability was 134%. In addition, the EC50 under setting [2] worked out at 170 nM. The EC50 under setting [3] is 80 nM.
For `O=c1cc(CSc2cc(Cl)cc(Cl)c2)[nH][nH]1` [CMB-086835-2], the Corresponding % viability came out at 129%. Also, the EC50 under setting [3] was 300 nM. Besides, the EC50 under setting [4] stood at 290 nM.
With `O=c1cc(CSc2ccc(Cl)cc2)[nH][nH]1` [CMB-086836-1], the Corresponding % viability is recorded as 75%. The EC50 under setting [1] is 4140 nM.
With `O=c1cc(CSc2ccc(-c3ccccc3)cc2)[nH][nH]1` [CMB-086883-1], the Corresponding % viability is reported as 115%. The EC50 under setting [1] was 9440 nM. The EC50 under setting [2] is 4060 nM.
For `CC(C)c1ccccc1SCc1cc(=O)[nH][nH]1` [CMB-086899-1] the same measures were 106%, 400 nM and 480 nM.
For `O=c1cc(CSCCOc2ccccc2)[nH][nH]1` [CMB-086900-1] the same measures were 97%, 6210 nM and 7520 nM.
In the same order, the values of `CCc1ccccc1SCc1cc(=O)[nH][nH]1` [CMB-086901-1] are 106%, 2060 nM and 2500 nM.
`O=c1cc(COc2ccc(Cl)cc2)[nH][nH]1` [CMB-086902-1]: the Corresponding % viability is given as 131%. The EC50 under setting [2] turned out to be 650 nM. In addition, under setting [3], the EC50 was 570 nM.
With `O=c1cc(COc2ccc(Cl)cc2)[nH][nH]1` [CMB-086902-2], the Corresponding % viability was found to be 117%. Besides, the EC50 under setting [3] is 690 nM. In addition, the EC50 under setting [4] is 790 nM.
In the same order, the values of `O=c1cc(COc2ccc(Cl)cc2)[nH][nH]1` [CMB-086902-3] are 120%, 3430 nM and 770 nM.
In the case of `CCc1ccc(S(=O)(=O)Cc2cc(=O)[nH][nH]2)cc1` [CMB-087210-1], the Corresponding % viability is 101%. Also, the EC50 under setting [1] was 990 nM. In addition, the EC50 under setting [2] was 900 nM.
For `CC(C)c1ccc(S(=O)(=O)Cc2cc(=O)[nH][nH]2)cc1` [CMB-087211-1] the same measures were 103%, 750 nM and 680 nM.
In the same order, the values of `CCCCc1ccc(S(=O)(=O)Cc2cc(=O)[nH][nH]2)cc1` [CMB-087212-1] are 93%, 990 nM and 900 nM.
For `Cc1cc(S(=O)(=O)Cc2cc(=O)[nH][nH]2)c(C)cc1Cl` [CMB-087213-1], the Corresponding % viability came out at 116%. Further, the concentration for a half-maximal effect (EC50) under setting [1] is 2280 nM. Also, the EC50 under setting [2] was 1470 nM.
For `CCc1cccc(OCc2cc(=O)[nH][nH]2)c1` [CMB-087214-1] the same measures were 125%, 1120 nM and 720 nM.
For `CC(C)(C)c1cccc(OCc2cc(=O)[nH][nH]2)c1` [CMB-087215-1] the same measures were 141%, 1060 nM and 870 nM.
Consider `O=c1cc(COc2cc(Cl)cc(Cl)c2)[nH][nH]1` [CMB-087229-1], for which the Corresponding % viability came to 129%. Further, the EC50 under setting [3] is 50 nM. The EC50 under setting [4] worked out at 67 nM.
As for `O=c1cc(COc2cc(Cl)cc(Cl)c2)[nH][nH]1` [CMB-087229-5], the Corresponding % viability amounted to 123%. The half-maximal effective concentration (EC50) under setting [3] is 550 nM. Besides, under setting [4], the EC50 was determined as 310 nM.
`O=c1cc(CS(=O)(=O)c2cc(Cl)cc(Cl)c2)[nH][nH]1` [CMB-087235-1]: the Corresponding % viability was found to be 130%. Also, under setting [1], the EC50 is 360 nM. Further, the EC50 under setting [2] is 760 nM.
`O=c1cc(CS(=O)(=O)c2cc(Cl)cc(Cl)c2)[nH][nH]1` [CMB-087235-2]: the Corresponding % viability amounted to 132%. The EC50 under setting [3] is 670 nM. Besides, under setting [4], the EC50 was found to be 1410 nM.
As to `CCc1ccc(OCc2cc(=O)[nH][nH]2)cc1` [CMB-087241-1], the Corresponding % viability was 88%. In addition, under setting [1], the EC50 is 3290 nM. Also, the EC50 under setting [2] is 1960 nM.
For `O=c1cc(COc2ccc(Cl)c(Cl)c2)[nH][nH]1` [CMB-087242-1] the same measures were 136%, 130 nM and 580 nM.
In the same order, the values of `O=c1cc(COc2cc(C(F)(F)F)cc(C(F)(F)F)c2)[nH][nH]1` [CMB-087260-1] are 120%, 130 nM and 580 nM.
For `Cn1[nH]c(COc2cc(Cl)cc(C(F)(F)F)c2)cc1=O` [CMB-087264-1], the Corresponding % viability is 109%. For the same compound, the EC50 under setting [1] is 6670 nM. The EC50 under setting [2] turned out to be 5130 nM.
Take `Cn1[nH]c(COc2ccc(Cl)cc2)cc1=O` [CMB-087362-1]: the Corresponding % viability is on record as 107%. Under setting [1], the EC50 is 7600 nM. The EC50 under setting [2] worked out at 5850 nM.
As for `Cn1c(COc2cc(Cl)cc(Cl)c2)cc(=O)n1C` [CMB-087363-1], the EC50 under setting [1] was more than 32000 nM.
In the case of `O=c1cc(COc2cc(F)cc(F)c2)[nH][nH]1` [CMB-087627-1], the Corresponding % viability amounted to 125%. Further, the EC50 under setting [1] is 3210 nM. The EC50 under setting [2] came out at 1070 nM.
Consider `O=c1cc(COc2cc(Br)cc(Br)c2)[nH][nH]1` [CMB-087628-1], for which the Corresponding % viability worked out at 125%. Moreover, under setting [1], the EC50 is 1540 nM. Further, under setting [2], the EC50 came out at 510 nM.
For `O=c1cc(COc2cccc(Br)c2)[nH][nH]1` [CMB-087642-1] the same measures were 144%, 3060 nM and 1020 nM.
